Here are results for 7 compounds from BindingDB's records for doi:10.1021/jm00029a001 (Bristol-Myers Squibb Pharmaceutical Research Institute, 1994).

Experiment [1] addresses Endothelin-1 receptor (Rattus norvegicus) (UniProt P26684). In words: Ability to inhibit [125I]ET1 binding to vascular smooth muscle (vsm)- A10 cells.
Experiment [2] in a line: Selectivity for the ET-A receptor over ETB receptor was observed in rat cerebellar membranes.

Sequence of Endothelin-1 receptor (Rattus norvegicus) (P26684 whole entry, looked up): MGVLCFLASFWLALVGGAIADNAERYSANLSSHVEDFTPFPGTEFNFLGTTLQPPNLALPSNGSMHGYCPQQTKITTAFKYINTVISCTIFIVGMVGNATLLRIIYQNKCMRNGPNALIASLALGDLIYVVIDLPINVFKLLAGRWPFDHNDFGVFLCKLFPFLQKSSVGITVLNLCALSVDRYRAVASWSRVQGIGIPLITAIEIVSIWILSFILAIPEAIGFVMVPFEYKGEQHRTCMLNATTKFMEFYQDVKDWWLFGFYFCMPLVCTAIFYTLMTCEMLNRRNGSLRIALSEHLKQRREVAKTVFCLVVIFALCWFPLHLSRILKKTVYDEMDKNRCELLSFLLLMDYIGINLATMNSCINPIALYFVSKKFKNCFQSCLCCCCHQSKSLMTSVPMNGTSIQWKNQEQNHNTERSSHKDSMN

As to `Cc1cc(NS(=O)(=O)c2ccc(N)cc2)on1` [4-Amino-N-(3-methyl-isoxazol-5-yl)-benzenesulfonamide], in experiment [1], the IC50 amounted to 28 µM.

Take `Cc1noc(NS(=O)(=O)c2ccc(NCc3ccccc3)cc2)c1C` [4-Benzylamino-N-(3,4-dimethyl-isoxazol-5-yl)-benzenesulfonamide]: the IC50 in experiment [1] was determined as 9.8 µM.

`Cc1noc(NS(=O)(=O)c2ccc(C#N)cc2)c1C` [4-Cyano-N-(3,4-dimethyl-isoxazol-5-yl)-benzenesulfonamide]: the IC50 in experiment [1] is more than 32 µM. On to `Cc1noc(NS(=O)(=O)c2ccc(N(C)C)cc2)c1C` [4-Dimethylamino-N-(3,4-dimethyl-isoxazol-5-yl)-benzenesulfonamide], for which the IC50 in experiment [1] stood at 84 µM. For the compound `Cc1noc(NS(=O)(=O)c2cccc3c(CN(C)C)cccc23)c1C` [5-Dimethylaminomethyl-naphthalene-1-sulfonic acid (3,4-dimethyl-isoxazol-5-yl)-amide], in experiment [1], the IC50 worked out at 2.8 µM.

Take `Cc1noc(NS(=O)(=O)c2cccc3c(N(C)C)cccc23)c1C` [BMS-182874]: the Ki in experiment [2] is more than 200 µM.

Compound `CCCNc1ccc(S(=O)(=O)Nc2onc(C)c2C)cc1` [N-(3,4-Dimethyl-isoxazol-5-yl)-4-propylamino-benzenesulfonamide] came in with an IC50 in experiment [1] of 27 µM.

Broadly, the IC50 is the point on the concentration scale where inhibition reaches its midpoint. What is called Ki is the dissociation constant of the complex between target and ligand, obtained from inhibition or displacement. The low end stands for tighter binding, the high end for weaker binding.
